Assay results published in patent US8101368B2, “Quantitation of cellular DNA and cell numbers using element labeling” (DVS Sciences Inc., priority 2006, dated 2012).
One block for each compound: values may come before it.

Key:
KG-1a cells = assay: Viability with trypan blue of cells cultured in Pd-supplemented media; assay type: cell-based; conditions: 500 ppb Pd in growth media, 72 hours
Experimental: (§1) The experiment was set up to investigate if metals passively accumulated by cells could be indicative of cell number and cell type. For this purpose two different leukemia cell lines were cultured for 72 hours in growth media supplemented with very low amounts of rare earth metals: 100 ppb Rh was added to MBA-1 cells, and 500 ppb Pd was added to KG-1a cells which express the cell surface marker. During the three days of cell culture, aliquots of cells were tested for viability with trypan blue. […] Cells were collected by centrifugation (1200 rpm, 10 minutes), washed once in PBS/10% FBS and counted in a hemocytometer. Serial dilutions were prepared to give 1×10^6, 0.5×10^6, 1×10^5, 1×10^4, 1×10^3, and 1×10^2 KG-1a cells in a population of MBA-1 cells (1×10^6) per tube in triplicates (Table 1). In this example Pd will reflect the number of KG-1a cells and the presence of surface marker CD34 will specify the cell type, while MBA-1 cells are marked by Rh. Immunolabeling was carried out by adding anti-CD34 antibodies to tubes containing decreasing amounts of live KG-1a cells and incubating for 45 minutes on ice. Negative control tubes were reacted with the IgG1 isotype control immunoglobulins. After three low speed centrifugation washes with PBS/10% FBS all samples were incubated with biotinylated anti-mouse antibodies. […]

MBA-1 cells [1] = assay: Viability with trypan blue of cells cultured in Rh-supplemented media; assay type: cell-based; conditions: 100 ppb Rh in growth media, 72 hours
Experimental: as §1

MBA-1 cells [2] = assay: Binding of increasing concentrations of Rh(III) intercalator to fixed/permeabilized cells, ICP-MS; assay type: cell-based; conditions: 2.5 nanoM to 250 microM, 45 minutes, 1×10^6 fixed/permeabilized cells; linear response
Experimental: Binding of an intercalator to DNA is governed by the law of mass action. Assuming that a mammalian cell in G1 phase has 3.3×10^9 DNA base pairs of which only 10-70% are free from protein interaction (nucleosomes) and available for binding with the intercalator (one molecule per two base pairs at saturation), the number of molecules of dye needed is approximately 1-10×10^8. Thus for [Rh(phi)2bpy]Cl3, with 671 MW, 1 ml of 200 uM solution should be 100-fold excess of intercalator over DNA binding sites for 1×10^6 cells. The binding of various amounts of the Rh(III) intercalator with cultured cells was assessed. MBA-1 cells were fixed in 3.7% formaldehyde/PBS for 15 minutes, followed by permeabilization with 0.3% TRITON™ X-100/PBS; washed once with PBS and incubated for 45 minutes with 1 ml of increasing concentrations of [Rh(phi)2bpy]Cl3 from 2.5 nanoM to 250 microM. Each sample contained 1×10^6 cells, run in triplicates. Following washing, the cell pellets were treated with concentrated HCl, mixed with an equal volume of 1 ppb Ir internal standard, and analyzed in solution by ICP-MS.

MBA-1 cells [3] = system: MBA-1 cells
Experimental: Reactivity of the Rh(III) metallointercalator with fixed and fixed/permeabilized versus live cells was also examined. Equal amounts of MBA-1 cells (1×10^6) were either fixed/permeabilized as above, fixed in 3.7% formaldehyde alone or left untreated (live cells). After two washes in PBS the cells were incubated with 200 uM [Rh(phi)2bpy]Cl3 for 30 minutes; washed three more times and dissolved in HCl.

DNA = conditions: rhodium/base pair ratios of 2:1; cited from earlier work
K562 cells = assay: Cell cycle synchronization checked by propidium iodide flow cytometry; assay type: cell-based
Experimental: Cells were synchronized in G1/S and G2/M phases of the cell cycle using a DNA synthesis inhibitor, thymidine, followed by a mitotic inhibitor, nocodazole. The DNA content of the G0/G1 phase is centered at 2n. Treatment with double thymidine results in a G1/S-phase arrested cell population with approximately […]. Nocodazole addition following a single thymidine treatment arrests cells in the G2/M stage with 4n DNA content. K562 cells were treated with 2 mM thymidine added to culture medium for 17 hours. The cells were then washed and incubated in fresh media for 9 hours. At the end of this rest period the culture was split into two flasks—one received the second dose of 2 mM thymidine (double thymidine block) to arrest cells at G1/S; the other—0.2 ug/ml nocodazole (single thymidine-nocodazole block) to arrest cells at the M phase. The inhibitors were left in culture media for 17 hours. […] After several washes the cells were digested in concentrated HCl and analyzed by ICP-MS. […] Treatment of stained cells with enzymes shifts the detected Rh values due to enhanced binding of metallointercalator to naked DNA. […] In the case of RNAse A treatment—degradation of small RNA molecules bound to DNA such as siRNA that may block interaction of intercalator and DNA may lead to higher detected Rh values.

Compound: [Pd] [Pd, palladium]
- Cell death due to presence of metal in media (KG-1a cells): No excessive cell death

Compound: [Rh] [Rh, rhodium]
- Cell death due to presence of metal in media (MBA-1 cells [1]): No excessive cell death

- Membrane permeability in live cells (MBA-1 cells [3]): membrane impermeable
Compound: [Cl-].[Cl-].[Cl-].[NH-]c1c([NH-])c2ccccc2c2ccccc12.[NH-]c1c([NH-])c2ccccc2c2ccccc12.[Rh].c1ccc(-c2ccccn2)nc1 [[Rh(phi)2bpy]Cl3]
- Saturation of DNA binding (normalized Rh signal response) (MBA-1 cells [2]): without reaching a saturation limit
- Sequence dependence of binding to DNA (DNA): sequence neutral and random

Compound: COC(=O)Nc1nc2ccc(C(=O)c3cccs3)cc2[nH]1 [nocodazole]
- Cell cycle phase after block (K562 cells; single thymidine-nocodazole block, 0.2 ug/ml nocodazole, 17 hours): practically all cells were in M phase

Compound: Cc1cn([C@H]2C[C@H](O)[C@@H](CO)O2)c(=O)[nH]c1=O [thymidine]
- Cell cycle phase after block (K562 cells; double thymidine block, 2 mM, 17 hours each): majority of cells were in G1/S
